Tested on: 958767-090-R-J1-PDC spheroid growth
Test: Anticancer human tumor 958767-090-R-J1-PDC patient-derived head and neck squamous carcinoma cell line growth inhibition [IpAb]
Conditions: spheroids with HUVEC and MSC; for IC50: curve of first compound; for viability, T/C: stronger effect = lower value
How it was run: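 Combinations with ipatasertib or abemaciclib were tested on tumour spheroids holding HUVEC (25%) and MSC (15%) alongside 60% malignant cells. Top concentration was at or near clinical Cmax (10 microM if undefined), descending in half-log steps.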
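Note: spheroids exposed to agents for 7 days.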
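Throughout, for viability, T/C: 100% = DMSO vehicle control wells.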

CC(=O)c1c(C)c2cnc(Nc3ccc(N4CCNCC4)cn3)nc2n(C2CCCC2)c1=O + CC(C)NCC(C(=O)N1CCN(c2ncnc3c2C(C)CC3O)CC1)c1ccc(Cl)cc1
IC50 (second compound 0.1 µM): > 300 nM
IC50 (second compound 0.316 µM): 300 nM
IC50 (second compound 1 µM): < 0.949 nM
IC50 (second compound 3.16 µM): < 0.949 nM
IC50 (second compound 10 µM): < 0.949 nM
viability, T/C (second compound 0.1 µM, first compound 0.000949 µM): 83.8%
viability, T/C (second compound 0.1 µM, first compound 0.003 µM): 70.5%
viability, T/C (second compound 0.1 µM, first compound 0.00949 µM): 68.7%
viability, T/C (second compound 0.1 µM, first compound 0.03 µM): 67.7%
viability, T/C (second compound 0.1 µM, first compound 0.0949 µM): 53.4%
viability, T/C (second compound 0.1 µM, first compound 0.3 µM): 64.8%
viability, T/C (second compound 0.316 µM, first compound 0.000949 µM): 56.4%
viability, T/C (second compound 0.316 µM, first compound 0.003 µM): 65.3%
viability, T/C (second compound 0.316 µM, first compound 0.00949 µM): 54.2%
viability, T/C (second compound 0.316 µM, first compound 0.03 µM): 46.1%
viability, T/C (second compound 0.316 µM, first compound 0.0949 µM): 57.3%
viability, T/C (second compound 0.316 µM, first compound 0.3 µM): 52.5%
viability, T/C (second compound 1 µM, first compound 0.000949 µM): 48.1%
viability, T/C (second compound 1 µM, first compound 0.003 µM): 46.2%
viability, T/C (second compound 1 µM, first compound 0.00949 µM): 49.8%
viability, T/C (second compound 1 µM, first compound 0.03 µM): 41.8%
viability, T/C (second compound 1 µM, first compound 0.0949 µM): 47.2%
viability, T/C (second compound 1 µM, first compound 0.3 µM): 40.2%
viability, T/C (second compound 3.16 µM, first compound 0.000949 µM): 43.1%
viability, T/C (second compound 3.16 µM, first compound 0.003 µM): 43.6%
viability, T/C (second compound 3.16 µM, first compound 0.00949 µM): 39.1%
viability, T/C (second compound 3.16 µM, first compound 0.03 µM): 41.5%
viability, T/C (second compound 3.16 µM, first compound 0.0949 µM): 37.7%
viability, T/C (second compound 3.16 µM, first compound 0.3 µM): 31.2%
viability, T/C (second compound 10 µM, first compound 0.000949 µM): 41.4%
viability, T/C (second compound 10 µM, first compound 0.003 µM): 41.7%
viability, T/C (second compound 10 µM, first compound 0.00949 µM): 42.9%
viability, T/C (second compound 10 µM, first compound 0.03 µM): 35.5%
viability, T/C (second compound 10 µM, first compound 0.0949 µM): 30.7%
viability, T/C (second compound 10 µM, first compound 0.3 µM): 25%

Cn1ncc(Cl)c1-c1cc(C(=O)NC(CN)Cc2cccc(F)c2)sc1Cl (stereo not given) + CCN1CCN(Cc2ccc(Nc3ncc(F)c(-c4cc(F)c5nc(C)n(C(C)C)c5c4)n3)nc2)CC1
IC50 (second compound 0.01 µM): 786 nM
IC50 (second compound 0.0316 µM): 647 nM
IC50 (second compound 0.1 µM): 614 nM
IC50 (second compound 0.316 µM): 1080 nM
IC50 (second compound 1 µM): 818 nM
viability, T/C (second compound 0.01 µM, first compound 0.0316 µM): 89.7%
viability, T/C (second compound 0.01 µM, first compound 0.1 µM): 76.1%
viability, T/C (second compound 0.01 µM, first compound 0.316 µM): 58.8%
viability, T/C (second compound 0.01 µM, first compound 1 µM): 45.4%
viability, T/C (second compound 0.01 µM, first compound 3.16 µM): 33.5%
viability, T/C (second compound 0.01 µM, first compound 10 µM): 0.14%
viability, T/C (second compound 0.0316 µM, first compound 0.0316 µM): 75.1%
viability, T/C (second compound 0.0316 µM, first compound 0.1 µM): 74.5%
viability, T/C (second compound 0.0316 µM, first compound 0.316 µM): 62.6%
viability, T/C (second compound 0.0316 µM, first compound 1 µM): 38.3%
viability, T/C (second compound 0.0316 µM, first compound 3.16 µM): 25.5%
viability, T/C (second compound 0.0316 µM, first compound 10 µM): 0.15%
viability, T/C (second compound 0.1 µM, first compound 0.0316 µM): 73.2%
viability, T/C (second compound 0.1 µM, first compound 0.1 µM): 65.9%
viability, T/C (second compound 0.1 µM, first compound 0.316 µM): 51.5%
viability, T/C (second compound 0.1 µM, first compound 1 µM): 46.1%
viability, T/C (second compound 0.1 µM, first compound 3.16 µM): 30.3%
viability, T/C (second compound 0.1 µM, first compound 10 µM): 0.18%
viability, T/C (second compound 0.316 µM, first compound 0.0316 µM): 62.7%
viability, T/C (second compound 0.316 µM, first compound 0.1 µM): 46.6%
viability, T/C (second compound 0.316 µM, first compound 0.316 µM): 47.1%
viability, T/C (second compound 0.316 µM, first compound 1 µM): 52.5%
viability, T/C (second compound 0.316 µM, first compound 3.16 µM): 19.7%
viability, T/C (second compound 0.316 µM, first compound 10 µM): 0.17%
viability, T/C (second compound 1 µM, first compound 0.0316 µM): 83.7%
viability, T/C (second compound 1 µM, first compound 0.1 µM): 63.3%
viability, T/C (second compound 1 µM, first compound 0.316 µM): 62.3%
viability, T/C (second compound 1 µM, first compound 1 µM): 50.9%
viability, T/C (second compound 1 µM, first compound 3.16 µM): 27.9%
viability, T/C (second compound 1 µM, first compound 10 µM): 1.92%
